A short description of assay [1]: ssNMR 15N T1rho relaxation (dynamics of bound teixobactin), Lys-Lipid II. Particulars: for Bulk 15N R1rho / Bulk 15N T1rho: 950 MHz, 60 kHz MAS. On the procedure: Relaxation studies: ^1H-detected ^15N T1rho relaxation experiments were carried out at 950 and 700 MHz magnetic field, respectively, using 60 kHz MAS[51]. The ^15N transverse magnetization decay was probed with a ^15N spinlock field of 17.5 kHz. For the bulk, we measured the intensity of the most intense signal at ~8.80 ^1H ppm. T1rho trajectories were fit to single exponentials.
Lipid I or II-doped multi-laminar vesicle preparations: DOPC or DOPG lipids were mixed with Lipid I or II in 1:1 MeOH:CHCl3 at the final Lipid I or II molar ratio (0–4 mol%/mol). The mixtures were dried and the lipid films were hydrated by vortexing with 2 mL of a teixobactin solution in 40 mM phosphate, 25 mM NaCl, pH 7.0.
SSNMR samples: MLVs were collected by centrifugation (20,000×g) and loaded into ssNMR rotors. For 3.2 mm rotors, we used 800 nmol of antibiotic with unlabelled Lipid II or I, while we used 400 nmol with labelled Lipid II. For 1.3 mm rotors, samples contained 200 nmol of antibiotic for unlabelled Lipid II or I, while we used 100 nmol for labelled Lipid II. For all ssNMR samples, we used 4 mol%/mol Lipid II or I in the MLVs.

The nature of assay [2]: 2D 15N1H ssNMR of bound teixobactin, mDAP-Lipid II vs Lys-Lipid II. The assay is classed as binding. The following applies: DOPC liposomes. On the procedure:
(§1) 1D, 2D, and 3D ^1H-detected experiments were performed at 60 kHz MAS frequency using magnetic fields of 16.4, 18.8, and 22.2 T (700, 800, and 950 MHz ^1H-frequency) at temperatures of 305 K. All ^1H-detected experiments were dipolar-based. PISSARRO low-power decoupling[47] was used during detection periods. 2D ^13C^13C spin diffusion experiments were performed with PARISxy[48] recoupling at 950 MHz and 15.5, 17, or 18 kHz MAS frequency at 270 K temperature using mixing times of 25–1000 ms. SPINAL64[49] was used in detection periods. The 2D scalar ^13C^13C TOBSY[50] experiment was acquired at 950 MHz with 8 kHz MAS at 295 K temperature with 6 ms ^13C–^13C magnetization transfer time. Chemical shift assignments were performed using standard ^1H-detected 3D CANH and CONH experiments[36],[51] in combination with 2D ^13C^13C PARISxy[48] experiments with different magnetization transfer times (see Supplementary Tables 1 and 2). DNP-enhanced 2D ^13C^13C spin diffusion (20 ms mixing time) ssNMR experiments[52] were carried out using a 263 GHz microwave frequency, 400 MHz ^1H frequency setup (Bruker Biospin) at 100 K temperature and 8.5 kHz MAS.
(§2) Lipid I or II-doped multi-laminar vesicle preparations: DOPC or DOPG lipids were mixed with Lipid I or II in 1:1 MeOH:CHCl3 at the final Lipid I or II molar ratio (0–4 mol%/mol). […]

The nature of assay [3]: 2D 15N1H ssNMR of bound teixobactin, Lys-Lipid I. It counts as binding. The following applies: DOPC liposomes; clear signal changes in the ring motif. How it is done: as §1, §2
The nature of assay [4]: 2D NH and DNP ssNMR of teixobactin-Lipid II complex in native cellular membranes. The assay is classed as binding, Micrococcus flavus DSM 1790. On the procedure: as §1
Native membrane vesicle preparations were obtained from Micrococcus flavus DSM 1790[13],[16]. The amount of antibiotic was ~7.5 and 30 nmol for the 1.3 and 3.2 mm rotors, respectively. […]

Assay [5] in a line: Fluorescence microscopy of GUVs doped with NBD-labelled Lipid II (Lipid II clustering). Particulars: 1 μM peptide, 4 h.
Procedure: GUVs were prepared using the electroformation method. The GUV cell is a self-assembled system which consists of a 5 mm-thick Teflon plate which is aligned with two titanium electrodes in a closed Teflon chamber. 1.5 μL of 0.5 mM DOPC doped with NBD-labelled Lipid II (0.1 mol%) were brushed on the electrodes. Next, the chamber was filled with 350 μL 0.1 M sucrose solution; the electrodes dipped in and then connected to a power supply which generated a sine wave of voltage 2.5 V at a frequency of 10 Hz for 90 min. Each microscopy slide (μ-slide 8 well, Ibidi) was covered with 350 μL BSA solution (1 mg/mL). To detach the GUVs from the electrodes the power supply was changed to square wave of voltage 2 V at a frequency of 2 Hz for 15 min. The slides were immersed in 300 μL 0.1 mM glucose solution to which 80 μL of GUVs were added. These were incubated for 4 h with 1 μM [R4L10]-teixobactin and observed by confocal microscopy. Anionic GUVs were prepared using a homemade electroformation setup with ITO coverslips (18 × 18 mm, 15–30 Ω, SPI supplies). On both slips, 3 μL of a chloroform–methanol (1:1, vol/vol) solution containing 1 mM of a 3:1 mixture of DOPC:DOPG (mol/mol) and 0.1 mol% NBD-labelled Lipid II was deposited and dried in a vacuum desiccator. With these slips, the electroformation chamber was assembled and filled with 0.1 M sucrose solution. The GUV cell was connected to the power supply and an alternating current applied (1 V, 10 Hz). GUV formation was carried out overnight.
Microscopy: GUVs were imaged using Zeiss LSM 880 with ×63/1.2NA glycerol objective lens. The NBD label appeared green upon excitation by the 488 nm laser. The emission range for detection was 530–545 nm (λem peak = 539 nm). The brightfield images were used for detection and location of the GUVs without a fluorescent signal and also as a control to observe their shape.
Setting [6] is: bound to Lys-LII in DOPC liposomes, 950 MHz/60 kHz MAS.
The mark [7] stands for this setting: bound to Lys-Lipid II in DOPC (Lys-LII PC).
The mark [8] stands for this setting: bound to Lys-Lipid II in DOPG (Lys-LII_PG).

Bridge positions count the residues as written; N and C are the ends. Square brackets hold non-standard residues; d marks the D form. Ends that are not written are not given here. d(aIle) = CC[C@H](C)[C@@H](N)C(=O)O; dNMeF = CN[C@H](Cc1ccccc1)C(=O)O

Consider one substance from article PMC7275090, “Mode of action of teixobactins in cellular membranes” (Nature Communications, 2020).

As for “D-Arg4-Leu10-teixobactin ([dNMeF]IS[dR][d(aIle)]IS[dT]ALI; ester 8-C; also: 13C,15N labels at Ile2, Ser3, Ile6, Ser7 and one Ala (residue not fully stated)) [[R4L10]-teixobactin]”, the “mobility of Lipid II-bound peptide with increasing anionic membrane charge” value in assay [1] (DOPG vs DOPC, ssNMR relaxation) is “stark increase in mobility”. Further, in assay [1] (setting [6]), the “15N R1rho, Ala9” value was determined as 8.95 s⁻¹; the “15N R1rho, Ile2” value worked out at 8.49 s⁻¹; the “15N R1rho, Ile6” value was determined as 7.70 s⁻¹; the “15N R1rho, Leu10” value was 10.67 s⁻¹. In assay [1] (setting [6]), the “15N R1rho, Ser3” value was 7.40 s⁻¹; the “15N R1rho, Ser7” value was found to be 6.84 s⁻¹; the “15N T1rho, Ala9” value stood at 111.70 ms; the “15N T1rho, Ile2” value came out at 117.80 ms. In addition, in assay [1] (setting [6]), the “15N T1rho, Ile6” value came to 129.90 ms; the “15N T1rho, Leu10” value was found to be 93.72 ms; the “15N T1rho, Ser3” value amounted to 135.20 ms; the “15N T1rho, Ser7” value amounted to 146.10 ms. Besides, in assay [1] (setting [7]), the “Bulk 15N R1rho” value was determined as 9.46 s⁻¹ and the “Bulk 15N T1rho” value is 105.70 ms. For the same substance, in assay [1] (setting [8]), the “Bulk 15N R1rho” value turned out to be 29.61 s⁻¹ and the “Bulk 15N T1rho” value is recorded as 33.77 ms. Also, the “ssNMR spectra bound to Lys-Lipid II vs mDAP-Lipid II” value in assay [2] is recorded as “gave the same ssNMR spectra”. The “binding to Lys-Lipid I” value in assay [3] is given as “also able to bind Lys-Lipid I”. The “oligomerization and complex structure in natural membranes” value in assay [4] (DNP-ssNMR 2D 13C13C, M. flavus membranes vs DOPC) is given as “conserved in natural membranes”. Also, in assay [4] (M. flavus membranes, 7.5 nmol of drug), the “cellular 2D NH spectrum vs anionic membranes” value is “strongly resembled the one in anionic membranes”. For the same substance, the “Lipid II segregation into clusters on GUVs” value in assay [5] (DOPC GUVs, 0.1 mol% NBD-Lipid II) is listed as “Lipid II segregated into μm-sized clusters”. Also, in assay [5] (DOPC GUVs, brightfield images, cluster sites show slight membrane deformations), the “vesicle integrity and morphology after incubation” value was “morphology is maintained”. Also, in assay [5] (anionic GUVs 1:3 DOPG:DOPC (mol/mol), 0.1 mol% NBD-Lipid II), the “Clustering of Lipid II in anionic membranes” value is listed as “clearly visible”.
